Measurements taken from US8709406B2, “Prevention and treatment of oxidative stress disorders by gluthathione and phase II detoxification enzymes” (Brassica Foundation for ChemoProtection Research, priority 2001, dated 2014).

Experiments:
L1210 cells = test: Menadione cytotoxicity (MTT, median effect analysis) and protection by sulforaphane; format: cell-based, mouse; details: menadione 2 h
Protocol: Mouse L1210 leukemia cells, a gift from Dr. Joseph G. Cory, East Carolina State University, Greenville, N.C., were grown in RPMI 1640 medium supplemented with 10% horse serum. All cultures were incubated in a humidified atmosphere of 5% CO2 at 37° C. Media and sera were obtained from Life Technologies (Rockville, Md.).
All experiments were performed in 96-well microliter plates. ARPE-19 and HaCaT cells were seeded at 10,000 cells per well and grown for 24 h before addition of sulforaphane, whereas L1210 cells (5,000 cells/well) were not incubated before sulforaphane treatment. Solutions of sulforaphane (5 mM) in dimethyl sulfoxide were diluted with the cognate culture medium to provide final inducer concentrations of 0.16-5.0 μM. The final DMSO concentrations were 0.1% by volume.
Cell viability was determined by spectroscopic measurement of the reduction of MTT (Carmichael, J., DeGraff, W. G., Gazdar, A. F., Minna, J. D. & Mitchell, J. B. (1987) Cancer Res. 47, 936-942). The culture media were discarded after the designated incubation periods, the cells were washed three times with PBS by use of a microtiter plate washer (Ultrawash Plus, Dynex Technologies, Chantilly, Va.). Each well then received 150 μl of an MTT solution (0.5 mg/ml) in serum-free medium. The plates were incubated for 2 h at 37° C., the MTT solution was discarded, 100 μl of DMSO were added to each well, and the plates were shaken at 200 rpm on an orbital shaker for 5 min. The absorbances of the wells were determined at 555 nm with a microtiter plate reader (Spectra Max Plus, Molecular Devices, Sunnyvale, Calif.). The absorbance of reduced MIT was then compared at each inducer and oxidant concentration to that of untreated control cells that received only the vehicle in which sulforaphane (DMSO) and menadione (DMSO or PBS) were dissolved. In each experiment three identical 96-well plates were used and the means of the absorbance values, the standard deviations of these means, and their coefficients of variation were calculated.
Dose-effect analyses were performed according to the Median Effect Equation, by use of a computer program (Chou, T. C. & Hayball, M. (1996) CalcuSyn for Windows 3.1 and 95: multiple dose effect analyzer and manual for IBM-PC, Biosoft, Cambridge, U.K). The equation: fa/fu=[D/Dm]^m, where fa is the fraction of cells affected by the oxidant, fu is the fraction unaffected (i.e., 1-fa), D is the dose of oxidant required to produce the effect fa, Dm is the concentration of oxidant required to produce a 50% effect, i.e., when fa=fu, and the slope m is a measure of the sigmoidicity of the dose-response curve, and is therefore a measure of cooperativity. The results are analyzed by plotting log(fa/fu) with respect to log D of the oxidant. The computer program provides the slope (m) of the curves, and the goodness of fit (r^2) to linearity.

glutathione = details: ARPE-19
Protocol: Cells were lysed by addition of a digitonin solution (0.8 mg/ml digitonin in 2 mM EDTA, pH 7.8), incubated at 37° C. for 20 min, gently shaken for 20 min at 25° C., and centrifuged at 1,500×g for 20 min at 4° C.
Total glutathione (oxidized and reduced) was determined by reduction of 5,5′-dithiobis-2-nitrobenzoic acid (DTNB) in a glutathione reductase-coupled assay in 96-well microliter plates (Ritchie, J. P., Jr., Skowronski, L., Abraham, P. & Leutzinger, Y. (1996) Clin. Chem. 42, 64-70). Briefly, 30 μl of lysates were mixed with 60 μl of cold 2.5% metaphosphoric acid, stored at 4° C. for 10 min, and centrifuged for 20 min at 1,500×g at 4° C. […] After 5 min incubation at 25° C., 50 μl of 0.72 mM NADPH were added to each well, and the initial reaction rates were determined at 412 nm. Calibration curves for pure GSH were included in each assay.

[1] = after sulforaphane 0.16 μM 24 h
[2] = after sulforaphane 0.31 μM 24 h
[3] = after sulforaphane 0.63 μM 24 h

C[S+]([O-])CCCCN=C=S (centres unmarked) [Sulforaphane]
Dm (median effect concentration) of menadione (L1210 cells; [1]): 19.6 µM | m (slope of median effect plot) for menadione (L1210 cells; [1]): 0.864 | Dm (median effect concentration) of menadione (L1210 cells; [2]): 26.5 µM | m (slope of median effect plot) for menadione (L1210 cells; [2]): 1.00 | Dm (median effect concentration) of menadione (L1210 cells; [3]): 36.2 µM | m (slope of median effect plot) for menadione (L1210 cells; [3]): 1.17 | concentrations of GSH in cytosols (glutathione; sulforaphane 0-5.0 μM 24 h): rose with exposure to increasing concentrations of sulforaphane | increase of GSH levels (glutathione; sulforaphane 2.5 μM 24 h): about 50%
